The target of data set [1] is T1, Sphingobacterium multivorum SPT (Sphingobacterium multivorum, UniProt A7BFV6).
T1 construct: harboring the plasmid that express the full length of S. multivorum SPT; made in house; host or cells: Escherichia coli BL21 (DE3) pLysS
Nature of the data set: Steady-state kinetic analysis of SPT (LCB production from amino acid and PalCoA, quantified by TLC fluorescence). The class given is biochemical. Conditions: 1 mM PalCoA; for Kmapp / kcatapp: mean ± SD. The method, then:
The assay was performed as follows; 200 mM of amino acid (glycine, L-Ala, L-Ser, L-Hse, or L-Thr) was incubated with 1 mM PalCoA and 100 μM SPT in 100 μl of 100 mM potassium phosphate, pH 7.5, for 60 min at 37 °C. The reactions were terminated by addition of the equal volume of 2 N ammonia. Lipids were extracted by successive addition and mixing of 750 μl of chloroform/methanol (1:2, v/v), 250 μl of chloroform, and 250 μl of 1% KCl. Phases were separated by centrifugation, and the organic phase was recovered. The aqueous phase was reextracted with 200 μl of chloroform, and, after centrifugation, the organic phase was combined with the organic phase from the first extraction. The organic phase was washed with water/chloroform/methanol (47:48:3, v/v), dried, and suspended in chloroform/methanol (2:1, v/v). The extracted lipids were resolved by normal-phase TLC on Silica Gel 60 high-performance TLC plates (Merck) with chloroform/methanol/2 N ammonia (40:10:1, v/v) or chloroform/methanol/triethanol amine (95:5:10, v/v) and visualized by spraying with ninhydrin reagent followed by gentle heating. For the quantitative analysis, the UV-fluorescence intensities of the reaction products on TLC plates were visualized by a Fusion chemiluminescence imaging system using a UV-light box and analyzed by a FUSION Capt software (VILBER; https://www.garvan.org.au/research/capabilities/molecular-genetics/ documents/fusion_manual_2016.pdf).
Steady-state kinetic parameters were determined by varying the concentrations of the amino acid substrate in the presence of 1 mM PalCoA in 100 μl of 100 mM potassium phosphate, pH 7.5, at 37 °C. The concentration of SPT and the incubation time were 1 μM and 10 min for L-Ser; 5 μM and 10 min for L-Hse; 20 μM and 30 min for L-Ala; and 100 μM and 120 min for Gly. The reaction termination, lipid extraction, TLC analysis, and quantification of the reaction products on TLC plates were described above. The apparent velocities (min^–1) versus amino acid concentrations (mM) plots were fitted to the Michaelis–Menten equation, v = Vmax[S]/(Km+[S]), by nonlinear regression using the Igor Pro 6.37 (https://www.wavemetrics.com/forum/news-and-announcements/igor-pro-637-released). software (Wave Matrix Inc.) to determine the apparent kinetic parameters, kcatapp and Kmapp , of SPT for each amino acid substrate.
The reactions were carried out in the presence of 1 mM PalCoA as described in Experimental procedures. Apparent rate constants, obtained by dividing the rate of the LCB production by the concentration of the enzyme, were plotted against concentrations of amino acid substrate, L-Ser (A), L-Hse (B), L-Ala (C), or glycine (D). The plots were fitted to the equation of the Michaelis–Menten mechanism, v = Vmax[S]/(Km+[S]), by nonlinear regression using the software Igor Pro (ver 6.37, WaveMetrics, Lake Oswego, OR), and the Kmappand kcatapp of SPT for each amino acid substrate were calculated. Solid line represents a theoretical curve based on the above equation. Each data point is a mean with the error bar showing standard deviation from at least three independent experiments.

In data set [2] the target is T1, Sphingobacterium multivorum SPT. Nature of the data set: Spectroscopic titration of SPT with amino acids (dissociation constants, external aldimine formation). The class given is binding. The following applies: 10 μM SPT, pH 7.5, 25 °C. The method, then: Next, binding of the amino acids to the S. multivorum SPT was examined by spectroscopic titration.
Figure 3 Spectroscopic analysis of the reaction of the Sphingobacterium multivorum SPT with L-Ala or L-Thr.A, the UV/vis absorption spectra of SPT (10 μM) in the presence of 800 mM L-Ala were measured at time intervals of 10 min for 500 min. Each line numbered 1 to 12 corresponds to the spectrum at 0, 10, 20, 30, 40, 50, 60, 80, 90, 110, 150, and 500 min, respectively, after SPT was mixed with L-Ala. […] B, spectroscopic titration of SPT with L-Ala. Absorbance at 420 nm in the presence of 0, 50, 100, 200, 400, and 600 mM L-Ala at 0 min was measured, and apparent molar absorptivities at 420 nm were plotted against L-Ala concentrations. […] C, absorption spectra of SPT (10 μM) in the presence of 0, 1.3, 3.7, 7.4, 12.2, 18.1, 24.9, 32.7, 41.3, and 51.6 mM L-Thr (lines 1–10, respectively). […] SPT, serine palmitoyltransferase.
The titration assay was carried out by using 10 μM SPT in 100 mM potassium phosphate and 0.1 mM EDTA, pH 7.5, at 25 °C. The changes of the 422 nm absorption intensities of SPT upon addition of amino acids were plotted against the final concentrations of the amino acids, and the Kd values were calculated by fitting to a hyperbolic saturation curve using Igor Pro 6.37. software. UV/vis spectra of SPT were recorded with a Hitachi U-3310 spectrophotometer.

For data set [3] the target is unchanged. The data set is described as follows: TLC analysis of LCB formation from amino acids by SPT (ninhydrin). The class given is biochemical. The following applies: 200 mM amino acid, 1 mM PalCoA, 100 μM SPT, pH 7.5, 60 min, 37 °C.
Excerpt: Reaction products were extracted with solvents and separated by TLC. […] Each LCB product was quantified by the fluorescence intensity based on the standard curve obtained by using the corresponding authentic compound.
The target is the same in data set [4]. The data set is described as follows: UV/vis time course of conversion of PLP and L-Ala to PMP and pyruvate by SPT (abortive transamination). The class given is biochemical. Here is the method:
Next, binding of the amino acids to the S. multivorum SPT was examined by spectroscopic titration. […] Therefore, the absorption at 420 nm just after SPT was mixed with L-Ala was measured and plotted against concentrations of L-Ala (Fig. 3B), and the Kd value for L-Ala was estimated as 65 ± 10 mM (Table 1). For the other amino acids, only spectral changes corresponding to the external aldimine formation between PLP and the amino acids were observed, and side reactions such as PMP formation were not detected.
Figure 3 Spectroscopic analysis of the reaction of the Sphingobacterium multivorum SPT with L-Ala or L-Thr.A, the UV/vis absorption spectra of SPT (10 μM) in the presence of 800 mM L-Ala were measured at time intervals of 10 min for 500 min. Each line numbered 1 to 12 corresponds to the spectrum at 0, 10, 20, 30, 40, 50, 60, 80, 90, 110, 150, and 500 min, respectively, after SPT was mixed with L-Ala. […] The lines represent theoretical fits to a single-exponential equation ( y=A×e^−k⋅t ), where k is 0.029 ± 0.00024 min^–1. B, spectroscopic titration of SPT with L-Ala. Absorbance at 420 nm in the presence of 0, 50, 100, 200, 400, and 600 mM L-Ala at 0 min was measured, and apparent molar absorptivities at 420 nm were plotted against L-Ala concentrations. […]

The mark [5] stands for this setting: 100 mM potassium phosphate pH 7.5, 37 °C.
The mark [6] stands for this setting: 100 mM potassium phosphate, 0.1 mM EDTA, absorption at 422 nm, mean ± SD.
Where [7] appears, read: reaction mixture supplemented with 0.1 mM PLP, pH 7.5, 37 °C.

Entries after “also recorded” stand apart in the source; their conditions may differ. Marks after values point to notes of the source that are not given here.

T1 sequence (A7BFV6 whole entry): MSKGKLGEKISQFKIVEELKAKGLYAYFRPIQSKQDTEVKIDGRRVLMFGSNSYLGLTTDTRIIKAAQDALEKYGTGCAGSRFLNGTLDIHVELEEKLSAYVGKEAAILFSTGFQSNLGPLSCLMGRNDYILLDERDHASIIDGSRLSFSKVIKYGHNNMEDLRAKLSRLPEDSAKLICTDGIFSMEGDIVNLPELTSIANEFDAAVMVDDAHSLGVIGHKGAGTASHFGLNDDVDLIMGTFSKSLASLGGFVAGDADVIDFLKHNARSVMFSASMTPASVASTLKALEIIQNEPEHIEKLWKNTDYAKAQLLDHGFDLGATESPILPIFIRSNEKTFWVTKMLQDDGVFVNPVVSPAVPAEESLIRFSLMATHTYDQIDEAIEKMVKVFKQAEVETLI

Regarding `NCC(=O)O` [Gly, glycine], in data set [1], the “Kmapp, fold larger than that for L-Ser” value was found to be 21 fold and the “kcatapp, fold smaller than that for L-Ser” value is given as 36,000 fold. In addition, in data set [1] (setting [5]), the Kmapp is 77 ± 8.1 mM and the kcatapp amounted to 0.008 ± 0.002 min^–1. Besides, in data set [1] (pH 7.5, 37 °C), the “kcatapp/Kmapp (apparent catalytic efficiency)” value (shortened to “kcatapp/Kmapp”) stood at 0.0001 min^–1 mM^–1. The Kd – broadly, a measure of binding affinity in units of concentration – in data set [2] (setting [6]) came to 71 ± 5.5 mM. Further, the “LCB formation (reaction product on TLC)” value in data set [3] is recorded as “converted to corresponding LCBs”.

For the compound `C[C@H](N)C(=O)O` [L-Ala, L-alanine], the “kcatapp/Kmapp” value in data set [1] (pH 7.5, 37 °C) amounted to 0.0037 min^–1 mM^–1. Besides, in data set [1] (setting [7]), the Kmapp was 110 ± 9.0 ^c mM and the kcatapp is on record as 0.42 ± 0.011 ^c min^–1. For the same compound, the Kd in data set [2] (absorption intensity at 424 nm immediately after SPT was mixed with L-Ala (text: 420 nm)) was found to be 65 ± 10 mM. Besides, in data set [3], the “LCB formation (reaction product on TLC)” value was “converted to corresponding LCBs”. Also, in data set [4] (SPT (10 μM) incubated with 800 mM L-Ala), the “half-life τ1/2 of conversion of PLP and L-Ala to PMP and pyruvate” value came to 24.0 ± 0.2 min. Besides, the “rate constant k of single-exponential change in absorption at 420 nm and 328 nm” value in data set [4] (SPT (10 μM), 800 mM L-Ala) turned out to be 0.029 ± 0.00024 min^–1.

`N[C@@H](CCO)C(=O)O` [L-Hse, L-homoserine]: in data set [1] (setting [5]), the Kmapp was 82 ± 14 mM and the kcatapp was found to be 4.5 ± 0.28 min^–1. For the same compound, the “kcatapp/Kmapp” value in data set [1] (pH 7.5, 37 °C) was 0.055 min^–1 mM^–1. This compound came in with a Kd in data set [2] (setting [6]) of 3.6 ± 0.2 mM. The “LCB formation (reaction product on TLC)” value in data set [3] is reported as “converted to corresponding LCBs”.

`N[C@@H](CO)C(=O)O` [L-Ser, L-serine]: in data set [1] (setting [5]), the Kmapp is 3.6 ± 0.87 mM and the kcatapp was found to be 13 ± 1.0 min^–1. Besides, the “kcatapp/Kmapp” value in data set [1] (pH 7.5, 37 °C) is reported as 3.6 min^–1 mM^–1. This compound also displayed a Kd in data set [2] (setting [6]) of 0.45 ± 0.05 mM.

For the compound `C[C@@H](O)[C@H](N)C(=O)O` [L-Thr, L-threonine], the “Kmapp, fold larger than that for L-Ser” value in data set [1] worked out at 23 fold. The affinity in data set [2] (setting [6]), expressed as Kd, was 8.2 ± 1 mM. The “LCB formation (reaction product on TLC)” value in data set [3] is listed as “not detected; also recorded: nonproductive ligand”.

As to `NC(CO)(CO)CO` [Tris, tris(hydroxymethyl)aminomethane], the Kd in data set [2] (setting [6]) was found to be 40 ± 5.6 mM.

Source of the values: article PMC10196870, “Structural insights into the substrate recognition of serine palmitoyltransferase from Sphingobacterium multivorum” (The Journal of Biological Chemistry, 2023).
